Legend:
Assay type in all cases: cell-based
[1] = system: NIH3T3/IGF-1R cells; test: IGF-I Receptor Growth Assay, 3T3 IGF-1R cells; conditions: Mus musculus, 0.5% FBS, 10 nM IGF-1, read-out: Cell Growth Assays, 3T3 IGF-1R 0.5% FBS
Description: Assay 2: IGF-I Receptor Growth Assay
Materials And Methods. The following materials were used to conduct the IGF-I receptor growth assay:
(§1) a. The NIH3T3/IGF-1R (10% FBS/2 mM glutamine/DMEM) and NIH3T3 c7 (10% calf serum/2 mM glutamine/DMEM) cell lines were used wherein the NIH3T3 cells (and cells derived from them) were handled such that they were not allowed to become confluent, thus decreasing the likelihood of spontaneous transformation.
Using the above described materials, the following steps were performed under aseptic conditions until fixing the cells for the SRB assay:
(§2) Day 0: Cell Plating--Trypsinize and count NIH3T3/IGF-1R and NIH3T3 c7 cells. Dilute in growth media to 2000 cells/200 μl and seed flat bottom 96-well plates with 200 μl/well, one plate for two compounds for each cell line.
Day 1: Compound Preparation--Add DMSO to each compound to make 100 mM stock solutions.
NIH3T31IGF-1R cells--For each 96-well plate, make 15 ml of 10 nM IGF-1/0.5% FBS/2 mM glutamine/DMEM (30 μl of 5 μM IGF-1/15 ml).
Add 3 μl of 100 mM stock of each compound to a tube so 200 μM final. Shake or vortex until it goes into solution. If it is necessary to add additional medium, note the final concentration.
Do 2-fold dilutions (130 μl) from columns 12 to 3 on each plate (column 2 will be for the untreated control), mixing thoroughly. […]

[2] = system: MCF7 cells overexpressing HER2 kinase (MCF7-HER2); test: MCF-7/HER-2 SRB Growth Assay; conditions: Homo sapiens, MCF7, 96 h; 0.5% FBS; 4 days; read-out: Cell Growth Assays, MCF7 Her-2 0.5% FBS
[3] = system: NIH3T3C7 cells; test: 3T3/HER2 Cell Growth Assay, 3T3 control cells (beside 3T3 HER-2); conditions: 96 h; 10% FBS; column beside 3T3 HER-2; 4 days; read-out: Cell Growth Assays, 3T3 10% FBS
Description: (§3) The NIH3T3 growth assay, using cell lines capable of expressing HER2, was carried out as follows:
(§4) m. NIH3T3C7 cells in 10% CS+2 mM glutamine DMEM HER2C7 cells in 2% FBS+2 mM glutamine DMEM
(§5) 1. HER2C7 (engineered to express HER2) and NIH3T3C7 (as the control) cells are used for this assay. NIH3T3C7 cells are seeded at 2500 cells/well, […] in 10% CS+2 mM glutamine DMEM, in a 96 well plate; HER2C7 cells are seeded at 6000 cells/well, 100 μl/well in 2% FBS+2 mM glutamine DMEM, in a 96 well plate. Cells are incubated at 37° C., 5% CO2 overnight to allow for cell attachment to the plate;
(§6) 2. The TBST compound is added to the cells at day 2. The compounds are prepared in the appropriate growth medium (10% CS+2 mM) glutamine DMEM for NIH3T3C7 cells; 2% FBS+2 mM glutamine DMEM for HER2C7 cells) in a 96 well plate, and serially diluted. A total of 100 μl/well medium of the diluted compounds is added into the cells. The total volume of each well is 200 μl. Quadruplicates (wells) and 11 concentration points are applied to each compound tested.
(§7) 3. After the cells are treated with the compound for 4 days, the cells are washed with PBS and fixed with 200 μl/well ice-cold 10% TCA for one hour at 0-5° C. condition.
(§8) 4. Remove TCA and rinse wells […] with deionized water. Dry plates upside down with paper towels. […]
7. Read the plate at dual wavelengths at 570 nm and 630 nm on Dynatech Elisa plate reader.

[4] = system: MCF7 cells; test: MCF-7 SRB Growth Assay; conditions: Homo sapiens, MCF7, 96 h; 10% FBS; 4 days; read-out: Cell Growth Assays, MCF7 10% FBS
Description: Assay 1: MCF-7 RB Growth Assay. MCF-7 cells are seeded at 2000 cells/well in a 96-well flat bottom plate in normal growth media, which was 10% FBS/RPMI supplemented with 2 mM Glutamine. The plate of cells is incubated for about 24 hours at 37° C. after which it receives an equal volume of compound dilution per well making the total volume per well 200 μl. The compound is prepared at 2 times the desired highest final concentration and serially diluted in the normal growth media in a 96-well round bottom plate and then transferred to plate of cells. DMSO serves as the vector control up to 0.2% as final concentration. The cells are then incubated at 37° C. in a humidified 5% CO2 incubator. Four days following dosing of compound, the media is 15 discarded and 200 μl/well of ice-cold 10% TCA (Trichloroacetic Acid) is added to fix cells. After 60 minutes at 4° C., the TCA is discarded and the plate is rinsed 5 times with water. The plate is then air-dried and 100 μl/well of 0.4% SRB (Sulforhodamine B from Sigma) 20 in 1% Acetic Acid is added to stain cells for 10 minutes at room temperature. The SRB is discarded and the plate is rinsed 5 times with 1% Acetic Acid. After the plate is completely dried, 100 μl/well of 10 mM Tris-base is added to solubilize the dye. After 5 to 10 minutes, the plate is read on a Dynatech ELISA Plate Reader at dual wavelengths at 570 nm and 630 nm. […]

[5] = system: HER2C7 cells (NIH3T3 engineered to express HER2); test: 3T3/HER2 Cell Growth Assay, 3T3 HER-2 cells; conditions: Mus musculus, NIH3T3, 96 h; 2% FBS; 4 days; read-out: Cell Growth Assays, 3T3 HER-2 2% FBS
Description: as §3, §4, §5, §6, §7, §8
7. Read the plate at dual wavelengths at 570 nm and 630 nm on Dynatech Elisa plate reader. […]

[6] = system: NIH3T3 c7 cells; test: Cell growth assay, 3T3 control cells (beside 3T3 IGF-1R); conditions: Mus musculus, 10% FBS, column beside 3T3 IGF-1R, read-out: Cell Growth Assays, 3T3 10% FBS
Description: as §1, §2
Day 4: Refeed--Repeat steps above, adding exactly the same IGF-1 and compound concentration to each well as before.
Using wells in column 2 (treated with IGF-1 but not compound) as 100%, calculate percent of control for each concentration of compound.
Use a curve fit method to graph percent of control vs. log(molar concentration) and determine the IC50.

In the case of COc1cccc2c1OC(c1ccc(F)cc1)C([N+](=O)[O-])=C2 (stereo not drawn) [Compound A, 2-(4-Fluorophenyl)-8-methoxy-3-nitro-1,2-benzopyran], the IC50 [1] is reported as 2500 nM, the IC50 [2] is reported as 800 nM and the IC50 [3] is reported as 70000 nM. The IC50 [4] was 2000 nM, the IC50 [5] was 1800 nM and the IC50 [6] was 5600 nM.

From patent US5763470A, “Benzopyran compounds and methods for their use” (Sugen Inc., priority 1995, dated 1998)
